From PubChem BioAssay AID330 (DTP/NCI, 2004)
“And” between values parts separate entries of the source, which are not always exact repeats. Equal values may be shown once. Toxic doses and inconclusive results are not listed. Rule for the calls: active = survival T/C of 150% or more; inactive = T/C below 125% in these data.

Tested on: P388 leukemia ip, CD2F1 mice, survival T/C
Test: NCI In Vivo Anticancer Drug Screen. Data for tumor model P388 Leukemia (intraperitoneal) in CD2F1 (CDF1) mice
Details: endpoint: median survival time, higher = longer survival
In short: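 Mice carrying the transplanted tumor received test compound or vehicle. Survival was recorded in each group, and the value is the treated-group measurement divided by that of the vehicle-treated control group.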

[1] = dose: 50.0 mg/kg/injection, schedule: Q01DX005 (ip), vehicle: Klucel (hydroxypropylcellulose) (HPC)
[2] = dose: 100.0 mg/kg/injection, schedule: Q01DX005 (ip), vehicle: Klucel (hydroxypropylcellulose) (HPC)
[3] = dose: 200.0 mg/kg/injection, schedule: Q01DX005 (ip), vehicle: Klucel (hydroxypropylcellulose) (HPC)
[4] = dose: 25.0 mg/kg/injection, schedule: Q01DX009 (ip), vehicle: saline with Tween-80
[5] = dose: 50.0 mg/kg/injection, schedule: Q01DX009 (ip), vehicle: saline with Tween-80
[6] = dose: 50.0 mg/kg/injection, schedule: Q01DX009 (ip), vehicle: saline
[7] = dose: 100.0 mg/kg/injection, schedule: Q01DX009 (ip), vehicle: saline with Tween-80
[8] = dose: 100.0 mg/kg/injection, schedule: Q01DX009 (ip), vehicle: saline
[9] = dose: 200.0 mg/kg/injection, schedule: Q01DX009 (ip), vehicle: saline with Tween-80
[10] = dose: 200.0 mg/kg/injection, schedule: Q01DX009 (ip), vehicle: saline
[11] = dose: 60.0 mg/kg/injection, schedule: Q01DX005 (ip), vehicle: Klucel (hydroxypropylcellulose) (HPC)
[12] = dose: 120.0 mg/kg/injection, schedule: Q01DX005 (ip), vehicle: Klucel (hydroxypropylcellulose) (HPC)
[13] = dose: 100.0 mg/kg/injection, schedule: Q04DX003 (ip), vehicle: saline
[14] = dose: 100.0 mg/kg/injection, schedule: Q01DX009 (ip), vehicle: Klucel (hydroxypropylcellulose) (HPC)
[15] = dose: 100.0 mg/kg/injection, schedule: Q04DX003 (ip), vehicle: saline with Tween-80
[16] = dose: 200.0 mg/kg/injection, schedule: Q04DX003 (ip), vehicle: saline with Tween-80
[17] = dose: 400.0 mg/kg/injection, schedule: Q04DX003 (ip), vehicle: saline with Tween-80
[18] = dose: 50.0 mg/kg/injection, schedule: Q01DX005 (ip), vehicle: saline with Tween-80
[19] = dose: 100.0 mg/kg/injection, schedule: Q01DX005 (ip), vehicle: saline with Tween-80
[20] = dose: 12.5 mg/kg/injection, schedule: Q01DX009 (ip), vehicle: saline
[21] = dose: 25.0 mg/kg/injection, schedule: Q01DX009 (ip), vehicle: saline
[22] = dose: 6.25 mg/kg/injection, schedule: Q01DX009 (ip), vehicle: saline

Measured: T/C

CC1(C)N(/N=C/c2ccccc2)C(c2ccccc2)C(c2ccccc2)N1/N=C/c1ccccc1 (stereo not given)
inactive: [1] 86 % of control | [2] 89 % of control | [3] 87 % of control

CNC(=S)N/N=C/c1ccccc1
inactive: [4] 110 % of control | [5] 112 % of control | [6] 100 % of control | [7] 117 % of control | [8] 105 % of control | [9] 100 % of control | [10] 100 % of control

COc1ccc2nccc3c2c1NC(Cl)=C3
inactive: [11] 97 % of control | [12] 103 % of control | dose: 240.0 mg/kg/injection, schedule: Q01DX005 (ip), vehicle: Klucel (hydroxypropylcellulose) (HPC) 97 % of control

Cc1cc(=O)oc2cc(OC(=O)N(C)C)ccc12
inactive: [13] 115 % of control | dose: 200.0 mg/kg/injection, schedule: Q04DX003 (ip), vehicle: saline 112 % of control | dose: 400.0 mg/kg/injection, schedule: Q04DX003 (ip), vehicle: saline 97 % of control

CC(=O)OC1C2OC3C=C(C)CCC3(CO)C(C)(C1OC(C)=O)C21CO1 (stereo not given)
inactive: dose: 0.5 mg/kg/injection, schedule: Q01DX009 (ip), vehicle: saline 108 % of control | dose: 1.0 mg/kg/injection, schedule: Q01DX009 (ip), vehicle: saline 100 % of control | dose: 2.0 mg/kg/injection, schedule: Q01DX009 (ip), vehicle: saline 106 % of control

CC(=O)OCc1c(COC(C)=O)c(-c2ccc(Cl)c(Cl)c2)n2c1CCC2
inactive: [14] 122 % of control

CCOC(=O)C1(C)OC1c1ccc([N+](=O)[O-])cc1 (stereo not given)
inactive: dose: 100.0 mg/kg/injection, schedule: Q04DX003 (ip), vehicle: Klucel (hydroxypropylcellulose) (HPC) 97 % of control | dose: 200.0 mg/kg/injection, schedule: Q04DX003 (ip), vehicle: Klucel (hydroxypropylcellulose) (HPC) 94 % of control | dose: 400.0 mg/kg/injection, schedule: Q04DX003 (ip), vehicle: Klucel (hydroxypropylcellulose) (HPC) 100 % of control

O=C1CC[S][Sn][O]1
inactive: [15] 100 % of control | [16] 95 % of control | [17] 95 % of control

O=C(O)CCc1c(-c2ccccc2)c(-c2ccccc2)c2n1CCC2
inactive: dose: 100.0 mg/kg/injection, schedule: Q01DX001 (ip), vehicle: saline with Tween-80 98 % of control | dose: 200.0 mg/kg/injection, schedule: Q01DX001 (ip), vehicle: saline with Tween-80 100 % of control | dose: 400.0 mg/kg/injection, schedule: Q01DX001 (ip), vehicle: saline with Tween-80 97 % of control

CCOC(=O)/C(Cl)=N/Nc1ccccc1
inactive: [18] 97 % of control | [19] 111 % of control

NC(N)=O
inactive: [20] 100 % of control | [21] 105 % of control | [6] 105 % of control | [8] 102 % of control | [10] 100 % of control | dose: 400.0 mg/kg/injection, schedule: Q01DX009 (ip), vehicle: saline 98 % of control

O=CC1C(=O)NC(=O)NC1=O
inactive: dose: 25.0 mg/kg/injection, schedule: Q04DX003 (ip), vehicle: saline 112 % of control | dose: 50.0 mg/kg/injection, schedule: Q04DX003 (ip), vehicle: saline 100 % of control | [13] 114 % of control

CC(=O)OCC(=O)[C@@]1(O)CC[C@H]2[C@@H]3CCC4=CC(=O)C=C[C@]4(C)[C@H]3C(=O)C[C@@]21C
inactive: dose: 25.0 mg/kg/injection, schedule: Q04DX003 (ip), vehicle: saline with Tween-80 95 % of control | dose: 50.0 mg/kg/injection, schedule: Q04DX003 (ip), vehicle: saline with Tween-80 104 % of control | [15] 95 % of control

Nc1ncnc(Nc2ccc(S(N)(=O)=O)cc2)n1
inactive: dose: 5.0 mg/kg/injection, schedule: Q01DX009 (ip), vehicle: Klucel (hydroxypropylcellulose) (HPC) 100 % of control | dose: 10.0 mg/kg/injection, schedule: Q01DX009 (ip), vehicle: Klucel (hydroxypropylcellulose) (HPC) 97 % of control | dose: 20.0 mg/kg/injection, schedule: Q01DX009 (ip), vehicle: Klucel (hydroxypropylcellulose) (HPC) 100 % of control

Cc1cc(C=C2C(=O)c3ccccc3C2=O)cc(C(C)(C)C)c1O
inactive: dose: 100.0 mg/kg/injection, schedule: Q04DX002 (ip), vehicle: saline 100 % of control | dose: 200.0 mg/kg/injection, schedule: Q04DX002 (ip), vehicle: saline 100 % of control | dose: 400.0 mg/kg/injection, schedule: Q04DX002 (ip), vehicle: saline 97 % of control

O=Cc1cc(C=O)c2ccc(=O)[nH]c2n1
inactive: [11] 109 % of control | [12] 114 % of control

C=C(Cl)C(O)CNCCCC (stereo not given)
inactive: [18] 110 % of control | [19] 110 % of control

O=C(NCCCCCCNC(=O)C12CC3CC(CC(C3)C1)C2)C12CC3CC(CC(C3)C1)C2
inactive: [1] 92 % of control | [2] 92 % of control | [3] 90 % of control

CC(C)(C)SC(=O)CC1(O)CCCCC1
inactive: dose: 25.0 mg/kg/injection, schedule: Q04DX002 (ip), vehicle: Klucel (hydroxypropylcellulose) (HPC) 98 % of control | dose: 50.0 mg/kg/injection, schedule: Q04DX002 (ip), vehicle: Klucel (hydroxypropylcellulose) (HPC) 100 % of control | dose: 100.0 mg/kg/injection, schedule: Q04DX002 (ip), vehicle: Klucel (hydroxypropylcellulose) (HPC) 100 % of control

CCCCCCC(O)CCCCCCCCCCC(=O)O (stereo not given)
inactive: [15] 109 % of control | [16] 100 % of control | [17] 104 % of control

CC1C(c2ccccc2)OCCN1C(N)=S (stereo not given)
inactive: dose: 50.0 mg/kg/injection, schedule: Q01DX009 (ip), vehicle: Klucel (hydroxypropylcellulose) (HPC) 108 % of control | [14] 101 % of control | dose: 200.0 mg/kg/injection, schedule: Q01DX009 (ip), vehicle: Klucel (hydroxypropylcellulose) (HPC) 101 % of control

NNC(=O)c1ccccc1Cl
inactive: dose: 6.25 mg/kg/injection, schedule: Q01DX009 (ip), vehicle: Klucel (hydroxypropylcellulose) (HPC) 97 % of control | [22] 100 % of control | dose: 12.5 mg/kg/injection, schedule: Q01DX009 (ip), vehicle: Klucel (hydroxypropylcellulose) (HPC) 96 % of control | [20] 100 % of control | dose: 25.0 mg/kg/injection, schedule: Q01DX009 (ip), vehicle: Klucel (hydroxypropylcellulose) (HPC) 100 % of control

O=C(c1ccccc1)c1ccc[n+](Cc2c(Cl)cccc2Cl)c1
inactive: [22] 101 % of control and 98 % of control | [20] 102 % of control and 105 % of control | [21] 105 % of control and 111 % of control and 123 % of control | [6] 108 % of control and 114 % of control and 117 % of control

O=C(O)c1cocc1C(=O)N1Cc2cc3ccccc3nc2C1
inactive: dose: 8.0 mg/kg/injection, schedule: Q01DX009 (ip), vehicle: saline with Tween-80 94 % of control | dose: 16.0 mg/kg/injection, schedule: Q01DX009 (ip), vehicle: saline with Tween-80 92 % of control | dose: 32.0 mg/kg/injection, schedule: Q01DX009 (ip), vehicle: saline with Tween-80 94 % of control | dose: 64.0 mg/kg/injection, schedule: Q01DX009 (ip), vehicle: saline with Tween-80 108 % of control | dose: 128.0 mg/kg/injection, schedule: Q01DX009 (ip), vehicle: saline with Tween-80 103 % of control

CCOC(=O)CCc1cnc[nH]1
inactive: dose: 60.0 mg/kg/injection, schedule: Q01DX005 (ip), vehicle: saline 108 % of control | dose: 120.0 mg/kg/injection, schedule: Q01DX005 (ip), vehicle: saline 106 % of control | dose: 240.0 mg/kg/injection, schedule: Q01DX005 (ip), vehicle: saline 98 % of control

Nc1nc(-c2ccccn2)cc(-c2cc(-c3ccccn3)nc(N)n2)n1
inactive: [11] 102 % of control | [12] 112 % of control

CC(=O)OC(C)/C=C\C#N (stereo not given)
inactive: dose: 15.0 mg/kg/injection, schedule: Q01DX005 (ip), vehicle: saline 98 % of control and 104 % of control and 86 % of control | dose: 30.0 mg/kg/injection, schedule: Q01DX005 (ip), vehicle: saline 98 % of control and 100 % of control and 96 % of control

CCOC(CN=Cc1cc(C)c2sc3ccccc3c2c1C)OCC
inactive: [4] 110 % of control | [5] 103 % of control | [7] 108 % of control | [9] 111 % of control
